We go through twelve compounds from paper PMC12928571, “Idler Compounds: A Simple Protocol for Openly Sharing Fridge Contents for Cross-Screening” (Journal of Medicinal Chemistry, 2026).

In data set [1] the test system is E. coli (NCTC 12923) +PMBN. As to the kind of experiment: Activity against E. coli in the presence of PMBN (30 μg/mL). In kind it is cell-based, Escherichia coli. As to conditions: 100 μM, active when inhibition >80%.
Another data set relates to C. albicans (NCPF 3281). The data set can be described thus: Activity against C. albicans, microbroth growth inhibition (OD530). In kind it is cell-based, Candida albicans. As to conditions: 100 μM; active when inhibition >80%. (In general: Dilution methods test growth across graded concentrations, often in twofold steps.)
Data set [2] in a line: Solubility by forward light-scatter (NEPHELOstar Plus). In kind it is physicochemical. The following applies: 1% DMSO in DPBS pH 7.1, 37 °C; for solubility (in words): 2 h.
Data set [3] relates to SARS-CoV-2 nonstructural protein 12 (Nsp12). As to conditions: from originating SARS-CoV-2 Nsp12 project; cited from earlier work.
The next data set deals with Huh7 cells. As to conditions: reported after plate MHT-0001 was prepared, reference not printed at the place; cited from earlier work.
In a further data set the test system is DENV serotype 2. The following applies: from originating DENV RdRp project; reference not printed at the place; cited from earlier work.
The subject of data set [4] is A. baumannii (ATCC 17978) +PMBN. As to the kind of experiment: Activity against A. baumannii in the presence of PMBN (30 μg/mL). It is filed as cell-based, Acinetobacter baumannii. As to conditions: 100 μM, active when inhibition >80%.
Data set [5] relates to chikungunya virus nsp2 helicase. As to conditions: from originating chikungunya virus nsp2 helicase project; cited from earlier work.
The next data set deals with P. falciparum. The following applies: from originating P. falciparum / Open Source Malaria projects; cited from earlier work.
For data set [6], the system named is Mycobacterium avium (ATCC15796). The data set can be described thus: Activity against Mycobacterium avium, luciferase reporter strain luminescence. As to conditions: 10 μM; active when inhibition >50%. For orientation: In a reporter assay the amount or activity of a reporter protein is the signal.
The subject of a further data set is S. aureus (ATCC 9144). As to the kind of experiment: Activity against S. aureus, microbroth growth inhibition (OD600). In kind it is cell-based, Staphylococcus aureus. The following applies: 100 μM; active when inhibition >80%.
In data set [7] the test system is Mycobacterium abscessus (NCTC 14045). The data set can be described thus: Activity against Mycobacterium abscessus, luciferase reporter strain luminescence. As to conditions: 10 μM; active when inhibition >50%.
Another data set deals with Gram-negative strain. As to the kind of experiment: Activity on a Gram-negative strain without PMBN (strain not given). The following applies: 100 μM, strain not named. It is filed as cell-based.

The term solubility denotes the concentration that dissolves in the medium under given conditions. The CC50 is the concentration giving 50% cytotoxicity.

Turning to `O=S(=O)(Nc1ccc(Oc2ccccc2)cc1)c1cccc(C(F)(F)F)c1` [EC055-1], in [1], the “activity on E. coli +PMBN (in words)” value was “narrow–spectrum activity”.

`COc1cc2nc(Nc3cc(C)[nH]n3)nc(Nc3cc(C)[nH]n3)c2cc1OC` [MA20]: in the data set on C. albicans (NCPF 3281), the “activity on C. albicans (in words)” value is listed as “selective activity”.

On to `CC1=CC(=O)C=C(C)C1=NOS(=O)(=O)c1ccc(Cl)cc1` [RA-0001351], for which the “solubility (in words)” value in data set [2] is “good solubility”. The “potency on Nsp12 (in words)” value in [3] was “potent”.

For `CC1(C)C2CCC1(C)C(OCC(O)CNC1CCCCC1)C2` (centres unmarked) [RA-0020564], the “activity on E. coli +PMBN (in words)” value in data set [1] (listed as well G6) was “narrow–spectrum activity”. The solubility at 2 h in data set [2] (DPBS with 1% DMSO, aqueous buffer, kinetic from dmso stock) is over 100 µM. For the same compound, the CC50 with Huh7 cells was 14.5 µM.

As to `Cc1ccc(C)c(N2CCN(C(=O)C3CCN(c4ncnc5c4sc4ncccc45)CC3)CC2)c1` [RA-0020572], in the data set on DENV serotype 2, the “antiviral activity on DENV serotype 2” value was 2.7 µM.

As to `COc1ccc(-c2ccc(CNc3ccnc(S(=O)(=O)F)c3)s2)cc1` [RA-0020649-01], the “activity on C. albicans (in words)” value in the data set with C. albicans (NCPF 3281) is “selective activity”.

`O=C(Nc1ccccc1)C(Cl)C(=O)c1ccccc1` (centres unmarked) [RA-0020661-01]: the “activity on A. baumannii +PMBN (in words)” value in data set [4] was “narrow–spectrum activity”.

As for `Oc1ccc(CN2CCN(c3ccccc3F)CC2)c2cccnc12` [RA-0020681], the “activity on C. albicans (in words)” value in the data set on C. albicans (NCPF 3281) is given as “selective activity”. The “unwinding or ATPase inhibitory effect (in words)” value in data set [5] is recorded as “no unwinding or ATPase inhibitory effect”. Also, the “solubility (in words)” value in [2] is on record as “poor”.

`COc1ccc2c(c1)nc(-c1c[nH]c3cc(N4CCOCC4)ccc13)c1[nH]ccc12` [WEL2.76]: in the data set on C. albicans (NCPF 3281), the “activity on C. albicans (in words)” value is “no noticeable effect”. Also, in the data set with P. falciparum, the “antiplasmodial activity / inhibition against P. falciparum (in words)” value is on record as “promising antiplasmodial activity”. The “activity on M. avium (in words)” value in data set [6] is recorded as “no noticeable effect”. For the same compound, the “activity on A. baumannii +PMBN (in words)” value in [4] is recorded as “strong activity”. Further, the “activity on E. coli +PMBN (in words)” value in data set [1] is on record as “strong activity”. Moreover, the “solubility (in words)” value in data set [2] is “poor”. Moreover, the “activity on S. aureus (in words)” value in the data set on S. aureus (ATCC 9144) is “strong activity”. Further, the “activity on M. abscessus (in words)” value in data set [7] is reported as “no noticeable effect”.

Consider `COc1ccc2c(c1)nc(-c1c[nH]c3ccc(N4CCSCC4)cc13)c1[nH]ccc12` [WEL2.92a], for which the “activity on a Gram-negative strain (in words)” value in the data set on Gram-negative strain is “showed activity”.

On to `CC(C)c1cc(Nc2nc(N[C@@H](CO)C3CCCCC3)nc3[nH]ncc23)n[nH]1` [WYH-9], for which the “activity on E. coli +PMBN (in words)” value in data set [1] is recorded as “narrow–spectrum activity”.

Consider `Nc1ncnc2cc(-c3cccc(S(N)(=O)=O)c3)sc12` [YNW5-2], for which the “antiplasmodial activity / inhibition against P. falciparum (in words)” value in the data set on P. falciparum was “potent and selective inhibition”. For the same compound, in data set [6], the “activity on M. avium (in words)” value is listed as “showed activity”. In [1], the “activity on E. coli +PMBN (in words)” value is “narrow–spectrum activity”.
